Values of other authors in patent US20230381267A1, “OXYTOCIN TREATMENT FOR HYPERMOBILE EHLERS-DANLOS SYNDROME” (Baylor College of Medicine, priority 2020, published 2023).

Experiments:
[1] = IV administration, irritable bowel syndrome
[2] = humans, preliminary research
[3] = intranasal, individuals with tension-type headache and migraine

CC[C@H](C)[C@@H]1NC(=O)[C@H](Cc2ccc(O)cc2)NC(=O)[C@@H](N)CSSC[C@@H](C(=O)N2CCC[C@H]2C(=O)N[C@@H](CC(C)C)C(=O)NCC(N)=O)NC(=O)[C@H](CC(N)=O)NC(=O)[C@H](CCC(N)=O)NC1=O [oxytocin]
effect on pain tolerance [1]: significant effect | average effect (Cohen d) (across central and peripheral modes of administration and type of noxious stimulus (heat, electric)): 2.28 | duration of analgesic effects (after exogenous administration): approximately 1 hour | time at which analgesic effects were strongest (after exogenous administration): 20 to 30 min | animal studies in which oxytocin increased pain tolerance (systematic review Rash, AguirreCamacho and Campbell 2014): 29 of 33 | pain sensitivity [2]: decreases pain sensitivity | headache relief [3]: relieve headache in a dose-dependent manner
